These results are taken from article PMC6934184, “Selective DNA-PKcs inhibition extends the therapeutic index of localized radiotherapy and chemotherapy” (The Journal of Clinical Investigation, 2019).

Broadly, the inhibition is the drop in the measured response relative to a control, in per cent.

This assay deals with T1, CSNK1E (CK1 epsilon) (Homo sapiens, UniProt P49674).
T1 construct: purchased Thermo Fisher Scientific (Life Technologies) SelectScreen
The assay is described as follows: SelectScreen Z'LYTE. The assay is classed as biochemical. In outline: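 Percent values come from Thermo SelectScreen profiling of NU5455, combining activity and binding assays. CSF1R was run in Z'LYTE format at Km app ATP, and CAMK1 in Adapta format with ATP listed at 10.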

T1 sequence (P49674 whole entry): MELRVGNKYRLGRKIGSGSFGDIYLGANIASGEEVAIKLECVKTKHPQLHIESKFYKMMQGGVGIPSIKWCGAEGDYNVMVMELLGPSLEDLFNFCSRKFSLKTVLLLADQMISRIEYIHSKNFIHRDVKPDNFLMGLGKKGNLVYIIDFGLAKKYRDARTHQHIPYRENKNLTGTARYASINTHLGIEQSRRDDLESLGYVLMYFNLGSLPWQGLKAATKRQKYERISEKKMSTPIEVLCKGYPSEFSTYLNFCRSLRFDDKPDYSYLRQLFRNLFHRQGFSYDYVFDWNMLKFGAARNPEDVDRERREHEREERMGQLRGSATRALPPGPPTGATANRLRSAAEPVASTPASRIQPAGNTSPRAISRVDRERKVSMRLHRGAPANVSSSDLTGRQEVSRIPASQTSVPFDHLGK

With `CN(C(=O)CN1CCOCC1)c1ccc2sc3c(-c4cccc5c(=O)cc(N6CC7CCC(C6)O7)oc45)cccc3c2c1` [NU5455], the inhibition at 1 µM is -10.9%.
